Assay results taken from patent US20230085307A1, “PYRIDAZINONE COMPOUND AND HERBICIDE” (NISSAN CHEMICAL CORPORATION, priority 2019, published 2023).

Columns and labels:
Japanese bulrush = assay: Test Example 1: herbicidal activity, application before weed generation under submerged conditions (Table 16, symbol B); assay type: in vivo, Japanese bulrush (Schoenoplectus juncoides); conditions: 320 g/ha applied herbicide
Summary of the method: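 Submerged Wagner pots (alluvial soil, 4 cm water) sown with weed seeds and planted with 2.5-leaf rice seedlings; emulsifiable concentrate diluted in water applied to water surface on sowing day. Held in greenhouse at 25-30 °C; injury scored 0-5 by herbicidal rate after three weeks.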

late watergrass = assay: Test Example 2: herbicidal activity, application during weed generation under submerged conditions (Table 17, symbol A); assay type: in vivo, late watergrass (Echinochloa oryzicola); conditions: AAH 320 g/ha; application during weed generation, submerged conditions
Summary of the method: (§1)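 Effect on each weed is rated three weeks post-treatment, using the same scoring criteria as the preceding test. Plants grow from mixed-sown seed in flooded alluvial soil (4 cm water) at 25° C. to 30° C., and are treated at one to two leaves with diluted emulsion dropped onto the water.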

oval-leafed pondweed = assay: Test Example 2: herbicidal activity, application during weed generation under submerged conditions (Table 17, symbol C); assay type: in vivo, oval-leafed pondweed (Monochoria vaginalis); conditions: AAH 320 g/ha; application during weed generation, submerged conditions
Summary of the method: as §1

Chinese sprangletop = assay: Test Example 3: herbicidal effect by foliage application, Wagner pot (Table 18, symbol D); assay type: in vivo, chinese sprangletop (Leptochloa chinensis); conditions: 320 g/ha
Summary of the method: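 Plants were sown in alluvial soil held under 0.1–0.5 cm standing water and grown 14 days in a greenhouse at 25–30 °C. An emulsifiable formulation, water-diluted to the set dose, was then sprayed onto the foliage, and effects were scored three weeks later using previously defined criteria.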

southern crabgrass = assay: Test Example 4: herbicidal effect by soil treatment (Table 19, symbol F); assay type: in vivo, southern crabgrass (Digitaria ciliaris); conditions: for herbicidal effect rating, F: southern crabgrass: amount of applied herbicide 320 g/ha; for F: southern crabgrass, herbicidal effect rating: AAH 320 g/ha
Summary of the method: (§2)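 Step 1: sow seeds in sterilized diluvial soil, cover ~1.5 cm. Step 2: spray diluted emulsion onto soil surface at predetermined rate. Step 3: greenhouse, 25–30° C, three weeks. Step 4: grade effect on each plant by earlier criteria.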

wild oat = assay: Test Example 4: herbicidal effect by soil treatment (Table 19, symbol I); assay type: in vivo, wild oat (Avena fatua); conditions: for herbicidal effect rating, I: wild oat: amount of applied herbicide 320 g/ha; for I: wild oat, herbicidal effect rating: AAH 320 g/ha
Summary of the method: as §2

blackgrass = assay: Test Example 4: herbicidal effect by soil treatment (Table 19, symbol J); assay type: in vivo, blackgrass (Alopecurus myosuroides); conditions: for herbicidal effect rating, J: blackgrass: amount of applied herbicide 320 g/ha; for J: blackgrass, herbicidal effect rating: AAH 320 g/ha
Summary of the method: as §2

Italian ryegrass [1] = assay: Test Example 4: herbicidal effect by soil treatment (Table 19, symbol K); assay type: in vivo, Italian ryegrass (Lolium multiflorum); conditions: for herbicidal effect rating, K: Italian ryegrass: amount of applied herbicide 320 g/ha; for K: Italian ryegrass, herbicidal effect rating: AAH 320 g/ha
Summary of the method: as §2

windgrass = assay: Test Example 4: herbicidal effect by soil treatment (Table 19, symbol L); assay type: in vivo, windgrass (Apera spica-venti); conditions: for herbicidal effect rating, L: windgrass: amount of applied herbicide 320 g/ha; for L: windgrass, herbicidal effect rating: AAH 320 g/ha
Summary of the method: as §2

lambsquarters [2] = assay: Test Example 4: herbicidal effect by soil treatment (Table 19, symbol O); assay type: in vivo, lambsquarters (Chenopodium album); conditions: for herbicidal effect rating, O: lambsquarters: amount of applied herbicide 320 g/ha; for O: lambsquarters, herbicidal effect rating: AAH 320 g/ha
Summary of the method: as §2

green foxtail = assay: Test Example 5: herbicidal effect by foliage application, plastic box (Table 20, symbol G); assay type: in vivo, green foxtail (Setaria viridis); conditions: foliage application, AAH 320 g/ha, three weeks after application
Summary of the method: (§3)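 Foliar spray test: emulsion formulation diluted in water to a set application rate, sprayed onto 14-day-old plants raised in diluvial soil at 25° C to 30° C under glass. Both herbicidal effect and crop effect rated visually three weeks later.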

Italian ryegrass [3] = assay: Test Example 5: herbicidal effect by foliage application, plastic box (Table 20, symbol K); assay type: in vivo, Italian ryegrass (Lolium multiflorum); conditions: foliage application, AAH 320 g/ha, three weeks after application
Summary of the method: as §3

velvetleaf = assay: Test Example 5: herbicidal effect by foliage application, plastic box (Table 20, symbol M); assay type: in vivo, velvetleaf (Abutilon theophrasti); conditions: foliage application, AAH 320 g/ha, three weeks after application
Summary of the method: as §3

redroot pigweed = assay: Test Example 5: herbicidal effect by foliage application, plastic box (Table 20, symbol N); assay type: in vivo, redroot pigweed (Amaranthus retroflexus); conditions: foliage application, AAH 320 g/ha, three weeks after application
Summary of the method: as §3

lambsquarters [4] = assay: Test Example 5: herbicidal effect by foliage application, plastic box (Table 20, symbol O); assay type: in vivo, lambsquarters (Chenopodium album); conditions: foliage application, AAH 320 g/ha, three weeks after application
Summary of the method: as §3

chickweed = assay: Test Example 5: herbicidal effect by foliage application, plastic box (Table 20, symbol P); assay type: in vivo, common chickweed (Stellaria media); conditions: foliage application, AAH 320 g/ha, three weeks after application
Summary of the method: as §3

SMILES	Herbicidal effect on B: Japanese bulrush (grade 0-5) (Japanese bulrush)	herbicidal effect rating, A: late watergrass (late watergrass)	herbicidal effect rating, C: oval-leafed pondweed (oval-leafed pondweed)	herbicidal effect on D (Chinese sprangletop), rating 0-5 (Chinese sprangletop)	herbicidal effect rating, F: southern crabgrass (southern crabgrass)	herbicidal effect rating, I: wild oat (wild oat)	herbicidal effect rating, J: blackgrass (blackgrass)	herbicidal effect rating, K: Italian ryegrass (Italian ryegrass [1])	herbicidal effect rating, L: windgrass (windgrass)	herbicidal effect rating, O: lambsquarters (lambsquarters [2])	G: green foxtail, herbicidal effect (green foxtail)	K: Italian ryegrass, herbicidal effect (Italian ryegrass [3])	M: velvetleaf, herbicidal effect (velvetleaf)	N: redroot pigweed, herbicidal effect (redroot pigweed)	O: lambsquarters, herbicidal effect (lambsquarters [4])	P: chickweed, herbicidal effect (chickweed)	F: southern crabgrass, herbicidal effect rating (southern crabgrass)	I: wild oat, herbicidal effect rating (wild oat)	J: blackgrass, herbicidal effect rating (blackgrass)	K: Italian ryegrass, herbicidal effect rating (Italian ryegrass [1])	other results
Cc1nn(C)c(=O)c(-c2c(-c3ccc4c(c3)CCO4)sc3ccccc23)c1O [1-101]	5 (Herbicidal rate of 90% or more (almost completely withered))	3 (Herbicidal rate of 40% or more and less than 70%)	5 (Herbicidal rate of 90% or more (almost completely withered))	5 (Herbicidal rate of 90% or more (almost completely withered))	3 (Herbicidal rate of 40% or more and less than 70%)	0 (Herbicidal rate of 5% or less (almost no effect))	0 (Herbicidal rate of 5% or less (almost no effect))	4 (Herbicidal rate of 70% or more and less than 90%)	4 (Herbicidal rate of 70% or more and less than 90%)	5 (Herbicidal rate of 90% or more (almost completely withered))	5 (Herbicidal rate of 90% or more (almost completely withered))	4 (Herbicidal rate of 70% or more and less than 90%)	5 (Herbicidal rate of 90% or more (almost completely withered))	4 (Herbicidal rate of 70% or more and less than 90%)	4 (Herbicidal rate of 70% or more and less than 90%)	5 (Herbicidal rate of 90% or more (almost completely withered))	–	–	–	–	–
CCCC(=O)Oc1c(C)nn(C)c(=O)c1-c1c(-c2ccc3c(c2)CCO3)sc2ccccc12 [1-102]	5 (Herbicidal rate of 90% or more (almost completely withered))	3 (Herbicidal rate of 40% or more and less than 70%)	5 (Herbicidal rate of 90% or more (almost completely withered))	3 (Herbicidal rate of 40% or more and less than 70%)	2 (Herbicidal rate of 20% or more and less than 40%)	1 (Herbicidal rate of 5% or more and less than 20%)	0 (Herbicidal rate of 5% or less (almost no effect))	3 (Herbicidal rate of 40% or more and less than 70%)	0 (Herbicidal rate of 5% or less (almost no effect))	4 (Herbicidal rate of 70% or more and less than 90%)	5 (Herbicidal rate of 90% or more (almost completely withered))	3 (Herbicidal rate of 40% or more and less than 70%)	5 (Herbicidal rate of 90% or more (almost completely withered))	5 (Herbicidal rate of 90% or more (almost completely withered))	4 (Herbicidal rate of 70% or more and less than 90%)	5 (Herbicidal rate of 90% or more (almost completely withered))	–	–	–	–	–
Cc1nn(C)c(=O)c(-c2c(-c3cnc4ccccc4c3)sc3ccccc23)c1O [1-108]	2 (Herbicidal rate of 20% or more and less than 40%)	0 (Herbicidal rate of 5% or less (almost no effect))	0 (Herbicidal rate of 5% or less (almost no effect))	3 (Herbicidal rate of 40% or more and less than 70%)	0 (Herbicidal rate of 5% or less (almost no effect))	0 (Herbicidal rate of 5% or less (almost no effect))	0 (Herbicidal rate of 5% or less (almost no effect))	0 (Herbicidal rate of 5% or less (almost no effect))	0 (Herbicidal rate of 5% or less (almost no effect))	3 (Herbicidal rate of 40% or more and less than 70%)	0 (Herbicidal rate of 5% or less (almost no effect))	0 (Herbicidal rate of 5% or less (almost no effect))	1 (Herbicidal rate of 5% or more and less than 20%)	0 (Herbicidal rate of 5% or less (almost no effect))	2 (Herbicidal rate of 20% or more and less than 40%)	2 (Herbicidal rate of 20% or more and less than 40%)	–	–	–	–	–
CCCC(=O)Oc1c(C)nn(C)c(=O)c1-c1c(-c2ccc(C(C)C)cc2)sc2ccccc12 [1-126]	3 (Herbicidal rate of 40% or more and less than 70%)	2 (Herbicidal rate of 20% or more and less than 40%)	1 (Herbicidal rate of 5% or more and less than 20%)	5 (Herbicidal rate of 90% or more (almost completely withered))	–	–	–	–	–	–	2 (Herbicidal rate of 20% or more and less than 40%)	4 (Herbicidal rate of 70% or more and less than 90%)	4 (Herbicidal rate of 70% or more and less than 90%)	5 (Herbicidal rate of 90% or more (almost completely withered))	4 (Herbicidal rate of 70% or more and less than 90%)	5 (Herbicidal rate of 90% or more (almost completely withered))	0 (Herbicidal rate of 5% or less (almost no effect))	0 (Herbicidal rate of 5% or less (almost no effect))	0 (Herbicidal rate of 5% or less (almost no effect))	3 (Herbicidal rate of 40% or more and less than 70%)	L: windgrass, herbicidal effect rating (windgrass): 0 (Herbicidal rate of 5% or less (almost no effect)); O: lambsquarters, herbicidal effect rating (lambsquarters [2]): 2 (Herbicidal rate of 20% or more and less than 40%)
COCc1ccc(-c2sc3ccccc3c2-c2c(O)c(C)nn(C)c2=O)cc1 [1-131]	1 (Herbicidal rate of 5% or more and less than 20%)	0 (Herbicidal rate of 5% or less (almost no effect))	3 (Herbicidal rate of 40% or more and less than 70%)	4 (Herbicidal rate of 70% or more and less than 90%)	–	–	–	–	–	–	5 (Herbicidal rate of 90% or more (almost completely withered))	5 (Herbicidal rate of 90% or more (almost completely withered))	5 (Herbicidal rate of 90% or more (almost completely withered))	5 (Herbicidal rate of 90% or more (almost completely withered))	5 (Herbicidal rate of 90% or more (almost completely withered))	5 (Herbicidal rate of 90% or more (almost completely withered))	4 (Herbicidal rate of 70% or more and less than 90%)	2 (Herbicidal rate of 20% or more and less than 40%)	1 (Herbicidal rate of 5% or more and less than 20%)	5 (Herbicidal rate of 90% or more (almost completely withered))	L: windgrass, herbicidal effect rating (windgrass): 2 (Herbicidal rate of 20% or more and less than 40%); O: lambsquarters, herbicidal effect rating (lambsquarters [2]): 5 (Herbicidal rate of 90% or more (almost completely withered))
